What was measured:
Experiment in all cases: relative viability (nuclei count vs DMSO), 5 days (fraction); higher = more cells survive
Selisistat + OSI-027 = compound: C1CC(C2=C(C1)C3=C(N2)C=CC(=C3)Cl)C(=O)N [Selisistat] + COc1cccc2cc(-c3nc([C@H]4CC[C@H](C(=O)O)CC4)n4ncnc(N)c34)[nH]c12 [OSI-027] (partner 0.5 µM)
Procedure, shortened: (§1)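 After 5 days of treatment, lung cancer cells in 1536-well plates were fixed and stained in a single step (final 0.05% Triton X-100, 1% formaldehyde, 1 ug/ml Hoechst) and their nuclei counted on 4× images. Treatment had been applied by pin tool the day after seeding as one drug alone or as a fixed anchor-drug dose with five library-drug doses (not always all listed) in √10 steps. Relative viability is the nuclei count of treated wells divided by that of vehicle wells, and values are medians of duplicate plates.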

Selisistat + Vorinostat = compound: C1CC(C2=C(C1)C3=C(N2)C=CC(=C3)Cl)C(=O)N [Selisistat] + O=C(CCCCCCC(=O)Nc1ccccc1)NO [Vorinostat] (partner 1 µM)
Procedure, shortened: as §1

Serdemetan + Navitoclax = compound: c1ccc2c(CCNc3ccc(Nc4ccncc4)cc3)c[nH]c2c1 [Serdemetan] + CC1(C)CCC(c2ccc(Cl)cc2)=C(CN2CCN(c3ccc(C(=O)NS(=O)(=O)c4ccc(N[C@H](CCN5CCOCC5)CSc5ccccc5)c(S(=O)(=O)C(F)(F)F)c4)cc3)CC2)C1 [Navitoclax] (partner 0.5 µM)
Procedure, shortened: as §1

Serdemetan + Linsitinib = compound: c1ccc2c(CCNc3ccc(Nc4ccncc4)cc3)c[nH]c2c1 [Serdemetan] + C[C@]1(O)C[C@@H](c2nc(-c3ccc4ccc(-c5ccccc5)nc4c3)c3c(N)nccn32)C1 [Linsitinib] (partner 1 µM)
Procedure, shortened: as §1

Cell Line | relative viability (Selisistat + OSI-027; first compound 0.4 µM) | relative viability (Selisistat + OSI-027; first compound 1.265 µM) | relative viability (Selisistat + OSI-027; first compound 4 µM) | relative viability (Selisistat + OSI-027; first compound 12.65 µM) | relative viability (Selisistat + OSI-027; first compound 40 µM) | relative viability (Selisistat + Vorinostat; first compound 0.4 µM) | relative viability (Selisistat + Vorinostat; first compound 1.265 µM) | relative viability (Selisistat + Vorinostat; first compound 12.65 µM) | relative viability (Selisistat + Vorinostat; first compound 40 µM) | relative viability (Serdemetan + Navitoclax; first compound 0.04 µM) | relative viability (Serdemetan + Navitoclax; first compound 0.1265 µM) | relative viability (Serdemetan + Navitoclax; first compound 0.4 µM) | relative viability (Serdemetan + Navitoclax; first compound 1.265 µM) | relative viability (Serdemetan + Navitoclax; first compound 4 µM) | relative viability (Serdemetan + Linsitinib; first compound 0.04 µM) | relative viability (Serdemetan + Linsitinib; first compound 0.1265 µM) | relative viability (Serdemetan + Linsitinib; first compound 0.4 µM) | relative viability (Serdemetan + Linsitinib; first compound 1.265 µM) | relative viability (Serdemetan + Linsitinib; first compound 4 µM) | relative viability (Selisistat + Vorinostat; first compound 4 µM)
NCI-H322M | 0.607 | 0.583 | 0.461 | 0.507 | 0.576 | 0.857 | 0.921 | 0.893 | 1.02 | 1.05 | 1.21 | 1.12 | 1.43 | 1.06 | 0.923 | 0.955 | 0.827 | 0.863 | 0.836 | –
NCI-H441 | 0.658 | 0.532 | 0.481 | 0.544 | 0.754 | 0.851 | 0.723 | 0.666 | 1 | 0.424 | 0.654 | 0.87 | 0.87 | 0.317 | 0.454 | 0.608 | 0.532 | 0.289 | 0.325 | 0.805
NCI-H460 | 0.695 | 0.667 | 0.471 | 0.557 | 0.666 | 0.691 | 0.772 | 0.723 | 0.807 | 1.03 | 1.04 | 1.13 | 0.303 | 0.0983 | 0.747 | 0.71 | 0.537 | 0.153 | 0.104 | 0.808
NCI-H520 | 0.311 | 0.216 | 0.257 | 0.248 | 0.206 | 0.722 | 0.705 | 0.592 | 0.794 | 1 | 1.09 | 1.07 | 0.762 | 0.924 | 0.973 | 1.02 | 0.817 | 0.808 | 0.774 | 0.814

From the supplement of paper PMC10307832
